Structures can show the parent of a compound that is named as a salt. Where two headings read alike, the source gives them in different places.
Target: T1, horseradish peroxidase (HRP) tagged delF508-CFTR (Homo sapiens, UniProt P13569, DEL508-508)
T1 construct: expressed in transfected cells
Test: Measurement of delF508-CFTR-HRP surface expression in CFBE41o- cells;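 as to DelF508-CFTR-HRP Amax %: percent efficacy relative to reference corrector lumacaftor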
Format: cell-based
Details: CFBE41o- cells; for EC50: read-out: DelF508-CFTR-HRP EC50; for Emax: read-out: DelF508-CFTR-HRP Amax %
Procedure, shortened: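 CFBE41o- bronchial epithelial cells stably expressing delF508-CFTR with HRP in the fourth extracellular loop; expression induced 48h with 500 ng/mL doxycycline, then compounds added (top 10 μM, 10-point 3-fold series, ≤0.5% DMSO) for 24h at 37° C. Surface HRP measured by luminescence with cell-impermeant substrate; EC50 from logistic fit of triplicates, plate-normalized to lowest concentration; efficacy also relative to a reference corrector.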

[1] = mean of at least two replicates
[2] = delF508-CFTR-HRP surface expression

T1 sequence (P13569 with tags, fused parts or gaps DEL508-508): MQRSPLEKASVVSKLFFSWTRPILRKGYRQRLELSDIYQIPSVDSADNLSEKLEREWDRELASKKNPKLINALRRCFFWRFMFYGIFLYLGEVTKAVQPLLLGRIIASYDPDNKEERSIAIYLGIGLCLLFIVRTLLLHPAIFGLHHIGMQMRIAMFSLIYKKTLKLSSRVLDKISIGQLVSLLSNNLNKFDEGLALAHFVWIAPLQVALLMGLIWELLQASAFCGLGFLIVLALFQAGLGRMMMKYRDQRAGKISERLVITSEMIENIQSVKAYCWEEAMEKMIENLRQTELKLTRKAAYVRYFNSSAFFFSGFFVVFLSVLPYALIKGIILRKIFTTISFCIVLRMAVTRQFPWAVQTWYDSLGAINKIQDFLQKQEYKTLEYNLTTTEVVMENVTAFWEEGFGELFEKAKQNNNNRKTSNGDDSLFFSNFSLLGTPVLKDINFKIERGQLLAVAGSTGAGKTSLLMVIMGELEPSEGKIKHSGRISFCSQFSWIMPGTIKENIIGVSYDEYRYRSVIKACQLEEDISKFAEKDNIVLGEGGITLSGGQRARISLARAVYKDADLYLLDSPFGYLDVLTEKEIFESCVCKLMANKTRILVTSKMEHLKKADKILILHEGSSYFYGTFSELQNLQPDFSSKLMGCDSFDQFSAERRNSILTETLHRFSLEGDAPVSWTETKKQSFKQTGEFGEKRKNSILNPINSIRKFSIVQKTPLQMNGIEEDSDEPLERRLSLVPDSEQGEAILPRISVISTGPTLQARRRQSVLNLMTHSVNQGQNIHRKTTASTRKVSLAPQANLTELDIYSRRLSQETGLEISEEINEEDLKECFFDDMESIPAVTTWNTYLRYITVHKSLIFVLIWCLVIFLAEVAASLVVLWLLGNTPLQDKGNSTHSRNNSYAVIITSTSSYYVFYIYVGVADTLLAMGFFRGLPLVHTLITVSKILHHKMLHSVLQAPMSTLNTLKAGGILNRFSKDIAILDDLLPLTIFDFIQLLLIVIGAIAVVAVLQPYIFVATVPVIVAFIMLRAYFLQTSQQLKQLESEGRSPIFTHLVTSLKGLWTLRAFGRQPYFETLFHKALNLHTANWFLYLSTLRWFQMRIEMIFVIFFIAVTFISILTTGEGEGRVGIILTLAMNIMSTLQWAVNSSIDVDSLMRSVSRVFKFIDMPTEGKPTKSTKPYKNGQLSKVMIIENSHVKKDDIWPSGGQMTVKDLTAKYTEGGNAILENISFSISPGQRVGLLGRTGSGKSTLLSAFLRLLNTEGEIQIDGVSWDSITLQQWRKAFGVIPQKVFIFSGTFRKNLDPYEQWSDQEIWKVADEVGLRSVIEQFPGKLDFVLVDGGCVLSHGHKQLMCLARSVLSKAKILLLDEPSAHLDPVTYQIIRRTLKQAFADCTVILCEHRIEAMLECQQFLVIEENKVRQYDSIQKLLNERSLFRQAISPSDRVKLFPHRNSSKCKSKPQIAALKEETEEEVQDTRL

Compound	EC50 [1] [nM]	Emax (surface expression Amax) [%]	Emax [2] [%]	EC50 [2] [nM]
Nc1cccc(S(=O)(=O)Nc2ccc(Cl)c(-c3cc(Cl)ccc3C3CC3)n2)n1 [Example 16, 6-amino-N-(5-chloro-6-(5-chloro-2-cyclopropylphenyl)pyridin-2-yl)pyridine-2-sulfonamide]	–	–	519	1010
CC(F)(F)c1ccccc1-c1nc(NS(=O)(=O)c2cccc(N)n2)ccc1Cl [Example 48, 6-amino-N-(5-chloro-6-(2-(1,1-difluoroethyl)phenyl)pyridin-2-yl)pyridine-2-sulfonamide]	–	–	334	2330
Nc1ccc(S(=O)(=O)Nc2ccc(Cl)c(-c3ccccc3C3CC3)n2)cn1 [Example 54, 6-amino-N-(5-chloro-6-(2-cyclopropylphenyl)pyridin-2-yl)pyridine-3-sulfonamide]	–	–	305	2350
Cc1cccc(C)c1-c1nc(NS(=O)(=O)c2cccc(N)n2)ccc1F [Example 9, 6-amino-N-(6-(2,6-dimethylphenyl)-5-fluoropyridin-2-yl)pyridine-2-sulfonamide]	–	–	597	1520
CCOC(=O)C1(C)CCN(c2cccc(S(=O)(=O)Nc3ccc(C(F)(F)F)c(-c4c(C)cccc4C)n3)n2)CC1 [Example 266, ethyl 1-(6-{[6-(2,6-dimethylphenyl)-5-(trifluoromethyl)pyridin-2-yl]sulfamoyl}pyridin-2-yl)-4-methylpiperidine-4-carboxylate]	–	–	–	1280
Cc1cccc(C)c1-c1cc(C(F)(F)F)cc(NS(=O)(=O)c2cccc(N3CCN(C(=O)OC(C)(C)C)CC3)n2)n1 [Example 132, tert-butyl 4-(6-(N-(6-(2,6-dimethylphenyl)-4-(trifluoromethyl)pyridin-2-yl)sulfamoyl)pyridin-2-yl)piperazine-1-carboxylate]	–	–	894	803
Cc1ccccc1-c1nc(NS(=O)(=O)c2cccc(N)n2)ccc1C(F)(F)F [Example 15, 6-amino-N-(6-(o-tolyl)-5-(trifluoromethyl)pyridin-2-yl)pyridine-2-sulfonamide]	–	–	520	2300
N#Cc1ccccc1-c1nc(NS(=O)(=O)c2cccc(N)n2)ccc1Cl [Example 90, 6-amino-N-(5-chloro-6-(2-cyanophenyl)pyridin-2-yl)pyridine-2-sulfonamide]	–	–	50	3780
Cc1ccccc1-c1nc(NS(=O)(=O)c2cccc(N)n2)cc(C(F)(F)F)c1Cl [Example 22, 6-amino-N-(5-chloro-6-(o-tolyl)-4-(trifluoromethyl)pyridin-2-yl)pyridine-2-sulfonamide]	–	–	490	1620
Cc1c(F)cccc1-c1nc(NS(=O)(=O)c2cccc(N3CCNCC3)n2)ccc1Cl [Example 194, N-[5-chloro-6-(3-fluoro-2-methylphenyl)pyridin-2-yl]-6-(piperazin-1-yl)pyridine-2-sulfonamide hydrochloride]	–	–	177	3840
CCc1ccccc1-c1nc(NS(=O)(=O)c2cccc(N)n2)ccc1Cl [Example 29, 6-amino-N-(5-chloro-6-(2-ethylphenyl)pyridin-2-yl)pyridine-2-sulfonamide]	–	–	429	1080
Cc1ccccc1-c1nc(NS(=O)(=O)c2cccc(N3CCN(C(=O)OC(C)(C)C)C[C@H]3C(=O)O)n2)ccc1C(F)(F)F [Example 350, (2S)-4-[(tert-butoxy)carbonyl]-1-(6-{[6-(2-methylphenyl)-5-(trifluoromethyl)pyridin-2-yl]sulfamoyl}pyridin-2-yl)piperazine-2-carboxylic Acid]	–	–	232	1900
CC(C)c1ccccc1-c1nc(NS(=O)(=O)c2cccc(N3CCC[C@](C)(C(=O)O)C3)n2)ccc1C(F)(F)F [Example 385, (S)-1-(6-(N-(6-(2-isopropylphenyl)-5-(trifluoromethyl)pyridin-2-yl)sulfamoyl)pyridin-2-yl)-3-methylpiperidine-3-carboxylic Acid]	810	668	–	–

The remaining lines, values ahead:

EC50 [1] [nM]	Emax (surface expression Amax) [%]	Emax [2] [%]	EC50 [2] [nM]	Compound
1920	596	–	–	COc1ccc(Cl)cc1-c1nc(NS(=O)(=O)c2cccc(N3CCCC(C)(C(=O)O)C3)n2)ccc1C(F)(F)F (stereo not shown) [Example 432, 1-(6-(N-(6-(5-chloro-2-methoxyphenyl)-5-(trifluoromethyl)pyridin-2-yl)sulfamoyl)pyridin-2-yl)-3-methylpiperidine-3-carboxylic Acid]
1240	–	–	–	CC(C)c1ccccc1-c1nc(NS(=O)(=O)c2cccc(N3CCC[C@@H]4[C@@H](C(=O)O)C[C@@H]43)n2)ccc1C(F)(F)F (racemic) [Example 442, rac-(1SR,6RS,7SR)-2-(6-(N-(6-(2-isopropylphenyl)-5-(trifluoromethyl)pyridin-2-yl)sulfamoyl)pyridin-2-yl)-2-azabicyclo[4.2.0]octane-7-carboxylic Acid]
1700	–	–	–	CCC1(C(=O)O)CCCN(c2cccc(S(=O)(=O)Nc3ccc(C(F)(F)F)c(-c4ccccc4C)n3)n2)C1 (stereo not shown) [Example 454, 3-ethyl-1-(6-(N-(6-(o-tolyl)-5-(trifluoromethyl)pyridin-2-yl)sulfamoyl)pyridin-2-yl)piperidine-3-carboxylic Acid]
1390	400	–	–	Cc1ccccc1-c1nc(NS(=O)(=O)c2cccc(N3CCC[C@@](C)(C(=O)O)C3)n2)ccc1C1CC1 [Example 411, (R)-1-(6-(N-(5-cyclopropyl-6-(o-tolyl)pyridin-2-yl)sulfamoyl)pyridin-2-yl)-3-methylpiperidine-3-carboxylic Acid]
2540	274	–	–	Cc1c(F)cccc1-c1nc(NS(=O)(=O)c2cccc(N3CCCC4(CC4C(=O)O)C3)n2)ccc1C(F)(F)F (stereo not shown) [Example 440, 5-(6-(N-(6-(3-fluoro-2-methylphenyl)-5-(trifluoromethyl)pyridin-2-yl)sulfamoyl)pyridin-2-yl)-5-azaspiro[2.5]octane-1-carboxylic Acid]
1710	370	–	–	CC1(C(=O)O)CCN(c2cccc(S(=O)(=O)Nc3ccc(Cl)c(-c4ccccc4C4CC4)n3)n2)CC1 [Example 430, 1-(6-(N-(5-chloro-6-(2-cyclopropylphenyl)pyridin-2-yl)sulfamoyl)pyridin-2-yl)-4-methylpiperidine-4-carboxylic Acid]
2360	990	–	–	CCC1(C(=O)O)CCCN(c2cccc(S(=O)(=O)Nc3ccc(Cl)c(-c4ccccc4C)n3)n2)C1 (stereo not shown) [Example 452, 1-(6-(N-(5-chloro-6-(o-tolyl)pyridin-2-yl)sulfamoyl)pyridin-2-yl)-3-ethylpiperidine-3-carboxylic Acid]
1670	330	–	–	Cc1ccccc1-c1nc(NS(=O)(=O)c2cccc(N3CCC[C@@](C)(C(=O)O)C3)n2)ccc1C [Example 409, (R)-3-methyl-1-(6-(N-(5-methyl-6-(o-tolyl)pyridin-2-yl)sulfamoyl)pyridin-2-yl)piperidine-3-carboxylic Acid]
1490	–	–	–	Cc1cccc(C)c1-c1nc(NS(=O)(=O)c2cccc(N3CCC[C@@](C)(C(=O)O)C3)n2)ccc1Cl [Example 448, (R)-1-(6-(N-(5-chloro-6-(2,6-dimethylphenyl)pyridin-2-yl)sulfamoyl)pyridin-2-yl)-3-methylpiperidine-3-carboxylic Acid]
